The text below walks through data of patent US20250213707A1, “COMPOUND FOR INCREASING EFFICACY OF ONCOLYTIC VIRUSES” (ABLEVIA BIOTECH GMBH, priority 2022, published 2025).

The subject of the experiment is IgG from human donors (anti-AAV antibodies). The experiment in a line: Screen for anti-AAV antibodies in human sera, 2452 linear 15-amino-acid AAV peptides on microarrays (Table 1). In kind it is binding. Also noted: key to group I: X: the deduplicated aggregate of the respective top 10 peptide hits for each donor was compiled and designated as group I; key to group II: X: the deduplicated aggregate of the respective top 25 peptide hits for each donor was compiled and designated as group II; key to group III: X: the deduplicated aggregate of the respective top 50 peptide hits for each donor was compiled and designated as group III. To be noted: human donor IgG binding to linear 15-amino-acid AAV peptides on microarray, fluorescence; for group I: membership in deduplicated aggregate of top 10 peptide hits for each donor; for group II: membership in deduplicated aggregate of top 25 peptide hits for each donor; for group III: membership in deduplicated aggregate of top 50 peptide hits for each donor. The gist of the method: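 Protein G-purified IgG from human donor blood incubated with microarrays of 2452 linear 15-mer peptides from 16 AAVs; binding read by fluorescence. Background-subtracted signals ranked per donor, with top 10, 25, 50 and 250 hits pooled and deduplicated into groups I-IV.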

For the sequence DAAALEHDKAYDQQ [SEQ ID NO: 1940], the “group I” value is on record as “X”, the “group II” value is “X” and the “group III” value is on record as “X”.

As to “DDEDKFFPMSGVMI (REGION 1..14: note = peptide derived from viral capsid protein) [SEQ ID NO: 1937]”, the “group I” value was “X”, the “group II” value is reported as “X” and the “group III” value is “X”.

Take “DEEEIKATNPVATE (REGION 1..14: note = peptide derived from viral capsid protein) [SEQ ID NO: 1932]”: the “group I” value is recorded as “X”, the “group II” value is “X” and the “group III” value is “X”.

Regarding “DKAYDQQLKAGDNP (REGION 1..14: note = peptide derived from viral capsid protein) [SEQ ID NO: 1941]”, the “group I” value is “X”, the “group II” value was “X” and the “group III” value is reported as “X”.

On to “DKAYDQQLQAGDNP (REGION 1..14: note = peptide derived from viral capsid protein) [SEQ ID NO: 1928]”, for which the “group I” value was “X”, the “group II” value is listed as “X” and the “group III” value is “X”.

For the sequence “DKAYDRQLDSGDNP (REGION 1..14: note = peptide derived from viral capsid protein) [SEQ ID NO: 1926]”, the “group I” value was “X”, the “group II” value is listed as “X” and the “group III” value is “X”.

“DKDKFFPMSGVMIF (REGION 1..14: note = peptide derived from viral capsid protein) [SEQ ID NO: 1933]”: the “group I” value is “X”, the “group II” value is on record as “X” and the “group III” value is “X”.

As to “DSESVPDPQPIGEP (REGION 1..14: note = peptide derived from viral capsid protein) [SEQ ID NO: 1942]”, the “group I” value was “X”, the “group II” value is on record as “X” and the “group III” value is listed as “X”.

Turning to “DSQWLGDRVITTST (REGION 1..14: note = peptide derived from viral capsid protein) [SEQ ID NO: 1892]”, the “group I” value was “X”, the “group II” value was “X” and the “group III” value is on record as “X”.

For “DWLEDNLSEGIREW (REGION 1..14: note = peptide derived from viral capsid protein) [SEQ ID NO: 1943]”, the “group I” value is on record as “X”, the “group II” value was “X” and the “group III” value is recorded as “X”.

Regarding “EEEIKTTNPVATEE (REGION 1..14: note = peptide derived from viral capsid protein) [SEQ ID NO: 1935]”, the “group I” value is on record as “X”, the “group II” value is “X” and the “group III” value is on record as “X”.

As to “EEIKTTNPVATEQY (REGION 1..14: note = peptide derived from viral capsid protein) [SEQ ID NO: 1945]”, the “group I” value is “X”, the “group II” value was “X” and the “group III” value is recorded as “X”.

As to ESVPDPQPIGEPPA [SEQ ID NO: 1947], the “group I” value was “X”, the “group II” value is listed as “X” and the “group III” value is listed as “X”.

Take “EYQLPYVLGSAHQG (REGION 1..14: note = peptide derived from viral capsid protein) [SEQ ID NO: 1948]”: the “group I” value is given as “X”, the “group II” value is reported as “X” and the “group III” value is listed as “X”.

On to FQERLQEDTSFGGN [SEQ ID NO: 1949], for which the “group I” value is given as “X”, the “group II” value is “X” and the “group III” value was “X”.

On to “GNTSQQQTDRNAFY (REGION 1..14: note = peptide derived from viral capsid protein) [SEQ ID NO: 1897]”, for which the “group I” value is given as “X”, the “group II” value is listed as “X” and the “group III” value is listed as “X”.

For the sequence GQNNNSNFAWTAGT [SEQ ID NO: 1936], the “group I” value is listed as “X”, the “group II” value is reported as “X” and the “group III” value is “X”.

“GTNTMATGSGAPMA (REGION 1..14: note = peptide derived from viral capsid protein) [SEQ ID NO: 1927]”: the “group I” value is reported as “X”, the “group II” value is given as “X” and the “group III” value is “X”.

As to “HSQSLDRLMNPLID (REGION 1..14: note = peptide derived from viral capsid protein) [SEQ ID NO: 1951]”, the “group I” value is “X”, the “group II” value is on record as “X” and the “group III” value was “X”.

Turning to “HYFGYSTPWGYFDF (REGION 1..14: note = peptide derived from viral capsid protein) [SEQ ID NO: 1917]”, the “group I” value was “X”, the “group II” value was “X” and the “group III” value is on record as “X”.

For “KGEPVNAADAAALE (REGION 1..14: note = peptide derived from viral capsid protein) [SEQ ID NO: 1952]”, the “group I” value is on record as “×”, the “group II” value is recorded as “X” and the “group III” value is “X”.

For KNTPVPADPPTTES [SEQ ID NO: 1930], the “group I” value is reported as “X”, the “group II” value is given as “X” and the “group III” value is on record as “X”.

As for “KNTPVPADPPTTFS (REGION 1..14: note = peptide derived from viral capsid protein) [SEQ ID NO: 1953]”, the “group I” value is reported as “×”, the “group II” value was “X” and the “group III” value is given as “X”.

As for “LPYVLGSAHQGCLP (REGION 1..14: note = peptide derived from viral capsid protein) [SEQ ID NO: 1954]”, the “group I” value was “X”, the “group II” value was “X” and the “group III” value was “X”.

“LQQQNAAPIVGAVN (REGION 1..14: note = peptide derived from viral capsid protein) [SEQ ID NO: 1955]”: the “group I” value is on record as “X”, the “group II” value is on record as “X” and the “group III” value is “X”.

Take “LQQQNTAPQIGTVN (REGION 1..14: note = peptide derived from viral capsid protein) [SEQ ID NO: 1934]”: the “group I” value is “X”, the “group II” value was “X” and the “group III” value is “X”.

Regarding NAADAAALEHDKAY [SEQ ID NO: 1956], the “group I” value was “X”, the “group II” value is “X” and the “group III” value is “X”.

NPGVAMATHKDDEE [SEQ ID NO: 1957]: the “group I” value is “X”, the “group II” value was “X” and the “group III” value is on record as “X”.

Take PGAPKPKANQQKQD [SEQ ID NO: 1958]: the “group I” value is given as “X”, the “group II” value is given as “X” and the “group III” value is listed as “X”.

For “PLVDQYLYRFVSTN (REGION 1..14: note = peptide derived from viral capsid protein) [SEQ ID NO: 1938]”, the “group I” value is given as “X”, the “group II” value is on record as “X” and the “group III” value was “X”.

PPQILIKNTPVPAD [SEQ ID NO: 1959]: the “group I” value was “X”, the “group II” value is “X” and the “group III” value is recorded as “X”.

On to “PRDWQRLINNNWGF (REGION 1..14: note = peptide derived from viral capsid protein) [SEQ ID NO: 1960]”, for which the “group I” value was “X”, the “group II” value was “X” and the “group III” value is “X”.

Consider PVPADPPTTESQAK [SEQ ID NO: 1931], for which the “group I” value was “X”, the “group II” value is “X” and the “group III” value is “X”.

With “PWGYFDFNRFHCHF (REGION 1..14: note = peptide derived from viral capsid protein) [SEQ ID NO: 1961]”, the “group I” value is listed as “X”, the “group II” value is “X” and the “group III” value is “X”.

With “QLPYVLGSAHQGCL (REGION 1..14: note = peptide derived from viral capsid protein) [SEQ ID NO: 1962]”, the “group I” value is on record as “X”, the “group II” value is listed as “X” and the “group III” value is “X”.

Consider QQRVSTTLSQNNNS [SEQ ID NO: 1963], for which the “group I” value was “X”, the “group II” value is given as “X” and the “group III” value is recorded as “X”.

For “SEPRPIGTRYLTRN (REGION 1..14: note = peptide derived from viral capsid protein) [SEQ ID NO: 1964]”, the “group I” value is given as “X”, the “group II” value is “X” and the “group III” value is “X”.

For “SESVPDPQPLGEPP (REGION 1..14: note = peptide derived from viral capsid protein) [SEQ ID NO: 1922]”, the “group I” value is given as “X”, the “group II” value is on record as “X” and the “group III” value was “X”.

Consider SGGSTNDNTYFGYS [SEQ ID NO: 1965], for which the “group I” value was “X”, the “group II” value was “X” and the “group III” value is listed as “X”.

As for “SQSLDRLMNPLIDQ (REGION 1..14: note = peptide derived from viral capsid protein) [SEQ ID NO: 1966]”, the “group I” value is “X”, the “group II” value is “X” and the “group III” value is listed as “X”.
